Measured values reported in patent US20210361767A1, “RESCUING CANCER PATIENTS FROM RESISTANCE TO TREATMENT WITH INHIBITORS OF PD-1/PD-L1 INTERACTIONS” (Mayo Foundation for Medical Education and Research, priority 2018, published 2021).

What was measured:
CD8+ T cells [1] = experiment: CD8+ T cell survival with sPD-L1-rich Karpas-299 supernatant, with or without checkpoint inhibitors (trypan blue); assay type: cell-based, human; conditions: with sPD-L1-rich Karpas-299 supernatant, therapeutic doses of checkpoint inhibitor, n=3, FIG. 5B
Description: FIG. 5A is a graph plotting survival of CD8+ human T cells cocultured in the presence of PBS control or 5 μg/ml or 10 μg/ml recombinant sPD-L1. […] FIG. 5B is a graph plotting survival of CD8+ human T cells cultured in the presence of PBS control or sPD-L1-rich Karpas-299 cell line supernatant, in the presence or absence of PD1 or PD-L1 checkpoint inhibitors. Cell survival was measured by trypan blue staining. […] FIGS. 5C and 5D are a series of flow cytometry plots indicating survival of CD8+ T cells treated with various cell extracts and an anti-PD-1 antibody (nivolumab or pembrolizumab) or an anti-PD-L1 antibody (atezolizumab). FIG. 5C, CD8+ T cells isolated from healthy subjects were incubated with sPD-L1-rich supernatants from Karpas-299 cells, supernatants from Karpas-299 cells treated with inhibitor TAPI-0, supernatants from Karpas-299 cells “spiked” with TAPI-0 after isolation, and controls (top), and TMRE uptake/Annexin-V binding was measured by flow cytometry to assess the level of CD8+ T cell survival. CD8+ T cells also were incubated with supernatants from Karpas-299 cells, plus the indicated doses of anti-PD-1 and anti-PD-L1 antibodies (bottom). FIG. 5D, CD8+ T cells were incubated with PD-L1-rich supernatants from A787-0 RCC cells and the indicated concentrations of pembrolizumab. […]

CD8+ T cells [2] = experiment: CD8+ T cell survival with Karpas-299 supernatants, TMRE/Annexin-V flow cytometry; assay type: cell-based, human; conditions: for survival of CD8+ T cells: with Karpas-299 supernatant
Description: CD8+ T cells isolated from healthy subjects were incubated in the presence of 50% Karpas-299 supernatants of varying types and 50% fresh cell culture media. Supernatant types included sPD-L1-rich supernatants from Karpas-299 cells, supernatants from Karpas-299 cells treated with TAPI-0 to prevent sPL-L1 production, supernatants from Karpas-299 cells “spiked” with TAPI-0 after sPD-L1 production, and fresh culture media controls (FIG. 5C). Karpas-299 cell supernatants were generated by incubation at 10 MM cells/ml for 48 hours. TMRE/Annexin-V binding was measured by flow cytometry to assess the level of CD8+ T cell survival. Antibodies and reagents used for flow cytometry were Annexin-V-FITC, anti-mouse CD16/32 (BioLegend; San Diego, Calif.); anti-PD-L1, mouse isotype control (eBioScience/Thermo Fisher Scientific; Waltham, Mass.), TMRE-PE (Abcam; Cambridge, Mass.), BD Wash/Perm (Becton Dickenson; Waltham, Mass.). Flow cytometry was performed and analyzed using FlowJo (Treestar; Ashland, Oreg.).
CD8+ T cells were incubated with supernatants from Karpas-299 cells as above, plus varying doses of several anti-PD-1 antibodies.
(§1) Karpas-299 lymphoma cells producing sB7-H1 were cultured with an array of protease inhibitors. Supernatants from these cultures were isolated and analyzed for sB7H1 concentration by ELISA. Subsequently, activated human CD8+ T cells were cultured with recombinant sB7H1 protein and cell survival was measured at 24 hours. CD8+ T cells also were cultured with sB7H1-rich tumor cell line supernatants versus sB7H1-depleted supernatants over 48 hours in the presence of placebo, low dose (10 nM), or high dose (1 μM) anti-PD-1 antibody pembrolizumab, and cell survival was measured.

[3] = test system: Dul45 prostate cancer cells; experiment: sPD-L1 ELISA of supernatants of Dul45 prostate cancer cells; assay type: cell-based; conditions: FIG. 4C
Description: (§2) Several tumor cell lines were treated with PBS (placebo) or with various protease inhibitors, including matrix metalloprotease inhibitors TAPI-2 and TAPI-0, aspartic protease inhibitor Pepstatin, cysteine protease inhibitor E-64, serine protease inhibitor Aprotinin, combinations of these inhibitors, and an array of other matrix metalloprotease inhibitors. Cell supernatants were queried for sPD-L1 by ELISA as published elsewhere (Frigola et la., supra). In brief, paired mouse IgG2 monoclonal antibodies against extracellular rhB7-H1 were utilized in a capture-detection plate assay using biotinylation and HRP-streptavidin detection. […] Concentrations were determined by optical density measurements along a known standard curve of rhB7-H1. Karpas-299 cells were incubated at 10 MM cells per ml in cell culture media (RPMI plus FBS plus Penicillin/Streptomycin plus buffering reagents) over 24 hours in the presence of 1 μl/100 μl DMSO or PBS (placebo), TAPI-2 at 278 μM, Pepstatin at 206.5 μM, E-64 at 185 μM, or Aprotinin at 220 μM, or a combination of the above materials at various concentrations. […] All statistical analyses were performed using R! software. Two-sided, unpaired Student t tests assessed statistical differences in experimental groups except where otherwise indicated. P values indicate comparison to vehicle control groups. P<0.05 was considered statistically significant.
Further studies were conducted using different types of cells.

[4] = test system: A786-0 (renal cell carcinoma) cells; experiment: sPD-L1 ELISA of supernatants of A786-0 cells treated with protease inhibitors; assay type: cell-based; conditions: n=5, FIG. 4E
Description: Tumor cells were treated with PBS (placebo) or with various protease inhibitors, including MMP inhibitors TAPI-2 and TAPI-0, aspartic protease inhibitor Pepstatin, cysteine protease inhibitor E-64, serine protease inhibitor Aprotinin, combinations of these inhibitors, and an array of other MMP inhibitors. Cell supernatants were queried for sPD-L1 by ELISA. FIG. 4A, Karpas-299 (lymphoma) cells were treated with the indicated protease inhibitors. FIG. 4B, A786-0 (renal cell carcinoma) cells were treated with the indicated protease inhibitors. FIG. 4C, Dul45 cells were treated with the indicated protease inhibitors. FIG. 4D, Mel-B7H1 (transgenic melanoma) cells were treated with the indicated protease or metalloprotease inhibitors. FIG. 4E is a graph plotting sPD-L1 production induced by interferon treatment or high cell titer in A786-0 cells. Cells grown at 1 MM/ml in control DMSO produced little sPD-L1. […] FIG. 4F is a graph plotting the amount of sPD-L1 in supernatants of Karpas-299 cells treated with control or with varying concentrations of the ADAM10/17 inhibitor aderbasib.
Several tumor cell lines were treated with PBS (placebo) or with various protease inhibitors, including matrix metalloprotease inhibitors TAPI-2 and TAPI-0, aspartic protease inhibitor Pepstatin, cysteine protease inhibitor E-64, serine protease inhibitor Aprotinin, combinations of these inhibitors, and an array of other matrix metalloprotease inhibitors. Cell supernatants were queried for sPD-L1 by ELISA as published elsewhere (Frigola et la., supra). In brief, paired mouse IgG2 monoclonal antibodies against extracellular rhB7-H1 were utilized in a capture-detection plate assay using biotinylation and HRP-streptavidin detection. […] Concentrations were determined by optical density measurements along a known standard curve of rhB7-H1. […] Two-sided, unpaired Student t tests assessed statistical differences in experimental groups except where otherwise indicated. […]

Karpas-299 cells = experiment: sPD-L1 ELISA of supernatants of Karpas-299 cells treated with protease inhibitors; assay type: cell-based; conditions: for sPD-L1 production with increasing concentrations: Karpas-299, 1 MM-10 MM cells/ml, aderbasib 320 pM to 32 mM, FIG. 4F
Description: as §2
Subsequent studies were conducted in which Karpas-299 cells were incubated with different matrix metalloprotease inhibitors with varying specificities. For example, Karpas-299 cells were incubated at 10 MM cells per ml in cell culture media over 24 hours in the presence of 1 μl/100 μl DMSO (control), 50 μM TAPI-2, 50 μM TAPI-0, 50 μM GI254023X, 5 μM Ro 32-3555, 5 μM ARP 101, 50 μM UK 370106, 500 pM MMP-9 inhibitor I, 5 μM Doxycycline, or some combination thereof.
Aderbasib is a selective inhibitor of matrix metalloproteases ADAM10 and ADAM17. Karpas-299 cells were incubated at 1 MM-10 MM cells/ml and treated for 24 hours with concentrations of aderbasib ranging from 320 pM to […].
as §1

CD8+ T cells [5] = experiment: CD8+ T cell survival with A786-0 supernatant plus pembrolizumab; assay type: cell-based, human; conditions: supernatants from A786-0 RCC cells (20% A786-0 supernatant), increasing concentrations; partial rescue; FIG. 5D
Description: FIG. 5A is a graph plotting survival of CD8+ human T cells cocultured in the presence of PBS control or 5 μg/ml or 10 μg/ml recombinant sPD-L1. […] FIG. 5B is a graph plotting survival of CD8+ human T cells cultured in the presence of PBS control or sPD-L1-rich Karpas-299 cell line supernatant, in the presence or absence of PD1 or PD-L1 checkpoint inhibitors. Cell survival was measured by trypan blue staining. […] FIGS. 5C and 5D are a series of flow cytometry plots indicating survival of CD8+ T cells treated with various cell extracts and an anti-PD-1 antibody (nivolumab or pembrolizumab) or an anti-PD-L1 antibody (atezolizumab). FIG. 5C, CD8+ T cells isolated from healthy subjects were incubated with sPD-L1-rich supernatants from Karpas-299 cells, supernatants from Karpas-299 cells treated with inhibitor TAPI-0, supernatants from Karpas-299 cells “spiked” with TAPI-0 after isolation, and controls (top), and TMRE uptake/Annexin-V binding was measured by flow cytometry to assess the level of CD8+ T cell survival. CD8+ T cells also were incubated with supernatants from Karpas-299 cells, plus the indicated doses of anti-PD-1 and anti-PD-L1 antibodies (bottom). FIG. 5D, CD8+ T cells were incubated with PD-L1-rich supernatants from A787-0 RCC cells and the indicated concentrations of pembrolizumab.
In brief, A786-0 cells were incubated at 10 MM cells/ml for 48 hours. […]

PD-L1 mRNA = PD-L1 mRNA expression by RT-PCR in Karpas-299 cells; assay type: cell-based; conditions: Karpas-299, 50 μM TAPI-0, 24 hours; data not shown
A549 cells = experiment: PD-L1 flow cytometry of A549 cells; assay type: cell-based; conditions: vs DMSO, FIGS. 7C, 7D
Description: FIGS. 7A and 7B are flow cytometry plots and graphs showing that cell PD-L1 expression is restored by treatment with an inhibitor of ADAM10 and/or ADAM17, and is decreased by treatment with exogenous recombinant ADAM10 or ADAM17. Cells were incubated in the presence of the indicated treatments, and PD-L1 flow cytometry was performed.

[6] = antibody at 1 μM, 1 μM pembrolizumab among the most effective, FIG. 5C

Q: What does the source list for “nivolumab: anti-PD-1 antibody, trade name OPDIVO”?
A: rescue of CD8+ T cell survival (CD8+ T cells [1]): did not rescue; survival of CD8+ T cells (CD8+ T cells [2]; [6]): increased the survival

Q: What does the source list for `COC(=O)N1CC2(CC2)C[C@H](C(=O)NO)[C@H]1C(=O)N1CCN(c2ccccc2)CC1` [aderbasib]?
A: sPD-L1 secretion versus controls [3]: significantly reduced; mean sPD-L1 production ([4]; A786-0 at 10 MM/ml, control DMSO 886 pg/ml, p=0.00018): 276 pg/mL; sPD-L1 production with increasing concentrations (Karpas-299 cells; 24 hours): decreasing concentrations of sPD-L1; sPD-L1 production with increasing concentrations (Karpas-299 cells; 24 hours, listed as Aderbasib): reduces sPD-L1 production

Q: With “pembrolizumab: humanized anti-PD-1 antibody, trade name KEYTRUDA” as the molecule, how does the “survival of CD8+ T cells” value (CD8+ T cells [5]) read?
A: increased the survival

Q: And the “rescue of CD8+ T cell survival” value (CD8+ T cells [1])?
A: did not rescue

Q: What about the “sB7-H1-containing supernatant-induced CD8+ T cell death” value (CD8+ T cells [2]; Example 3, 48 hours, high dose (1 μM)) of the same molecule?
A: decreased

Q: And the “survival of CD8+ T cells” value (CD8+ T cells [2]; antibody at 10 nM, FIG. 5C)?
A: increased the survival

Q: And the “survival of CD8+ T cells” value (CD8+ T cells [2]; [6])?
A: increased the survival

Q: `CC(C)C[C@H](CC(=O)NO)C(=O)N[C@@H](Cc1ccc2ccccc2c1)C(=O)N[C@@H](C)C(N)=O` [TAPI-0] was tested. Which “sPD-L1 secretion versus controls” value [3] did it give?
A: significantly reduced

Q: And the “mean sPD-L1 production” value ([4]; A786-0 at 1 MM/ml, interferon plus TAPI-0, interferon alone 923 pg/ml)?
A: 0 pg/mL

Q: What about the “Karpas-299 production of sB7H1” value (Karpas-299 cells; Example 3, supernatants by ELISA, p<0.0001) of the same molecule?
A: inhibited

Q: What about the “secretion of sPD-L1” value (Karpas-299 cells; Karpas-299, 10 MM cells per ml, 24 hours, 50 μM TAPI-0, vs DMSO, FIG. 4A, p=3.97×10^−7) of the same molecule?
A: reduced the secretion of sPD-L1

Q: What about the “PD-L1 mRNA expression” value (PD-L1 mRNA) of the same molecule?
A: without reducing PD-L1 mRNA expression

Q: What about the “rate of apoptosis of CD8+ T cells” value (CD8+ T cells [2]; 50% supernatant from TAPI-0 treated Karpas-299 cells and 50% fresh media, FIG. 5C) of the same molecule?
A: 2.46%

Q: What about the “CD8+ T cell death” value (CD8+ T cells [2]; Karpas-299 supernatants with added TAPI-0) of the same molecule?
A: did not induce cell death

B1: ADAM10: exogenous recombinant ADAM10 (protein)
chain: TTSAEKNTCQLYIQTDHLFFKYYGTREAVIAQISSHVKAIDTIYQTTDFSGIRNISFMVKRIRINTTADEKDPTNPFRFPNIGVEKFLELNSEQNHDDYCLAYVFTDRDFDDGVLGLAWVGAPSGSSGGICEKSKLYSDGKKKSLNTGIITVQNYGSHVPPKVSHITFAHEVGHNFGSPHDSGTECTPGESKNLGQKENGNYIMYARATSGDKLNNNKFSLCSIRNISQVLEKKRNNCFVESGQPICGNGMVEQGEECDCGYSDQCKDECCFDANQPEGRKCKLKPGKQCSPSQGPCCTAQCAFKSKSEKCRDDSDCAREGICNGFTALCPASDPKPNFTDCNRHTQVCINGQCAGSICEKYGLEECTCASSDGKDDKELCHVCCMKKMDPSTCASTGSVQWSRHFSGRTITLQPGSPCNDFRGYCDVFMRCRLVDADGPLARLKKAIFSPELYENIAE
Q: With B1 as the molecule, how does the “PD-L1 expression (flow cytometry)” value (A549 cells) read?
A: decreased
